Patent US20040002069A1, “Hepatic gene expression profiling of streptozotocin-induced diabetes” (The Regents of the University of California, priority 2002, published 2004)

Test system: hepatic gene expression
Assay: Hepatic gene expression profiling of streptozotocin-induced diabetes (Affymetrix Mu11KsubA/Mu11KsubB arrays)
Type: in vivo, Swiss-Webster mice
Procedure: Mice and treatment. Female, 8-month old Swiss-Webster mice were purchased from Jackson Laboratories. Diabetes was induced by three weekly intraperitoneal injections of streptozotocin (STZ; 10 mg/100 g body weight) in 50 mM sodium citrate, pH 4.5. […] Only mice with blood glucose levels higher than 3 mg/ml were used. Mice injected with equivalent volumes of sodium citrate at the same times served as controls. Mice were sacrificed one week after the last injection. Mice were fasted for 24 h before sacrifice.
Measurement of Specific mRNA Levels. Total liver RNA was isolated from frozen tissue fragments using TRI Reagent (Molecular Research Center, Inc., Cincinnati, Ohio) as described previously (Cao et al., Proc. Natl. Acad. Sci. U.S. A. 98:10630-10635 (2001)). Specific mRNA levels were measured using the Affymetrix Mu11KsubA and Mu11KsubB high-density oligonucleotide arrays using standard Affymetrix protocols as described (Cao et al., Proc. Natl. Acad. Sci. U.S. A. 98:10630-10635 (2001)). Briefly, cDNA was prepared from total RNA using Superscript Choice System with a primer containing oligo(dT) and the T7 RNA polymerase promoter sequence. Biotinylated cRNA was synthesized from purified cDNA using the Enzo BioArray High Yield RNA Transcript Labeling Kit (Enzo Biochem), and CRNA purified using RNeasy mini columns (Qiagen, Chatsworth, Calif.). An equal amount of cRNA from each animal was separately hybridized to Mu11KsubA and Mu11ksubB high-density oligonucleotide arrays. The arrays were hybridized for 16 h at 45° C. After hybridization, arrays were washed, stained with streptavidin-phycoerythrin, and scanned using a Hewlett-Packard GeneArray Scanner.
Data Analysis and Statistics. Image analysis and data quantification were performed using the Affymetrix Microarray Suite 5.0. Affymetrix Mu11KsubA and Mu11KsubB arrays contain targets for more than 11,000 mouse genes and expressed sequence tags (ESTs). Each gene or EST is represented on the array by 20 perfectly matched (PM) oligonucleotides and 20 mismatched (MM) control probes that contain a single central-base mismatch. The signal intensities of PM and MM were used to calculate a discrimination score, R, which is equal to (PM−MM)/(PM+MM). A detection algorithm utilized R to generate a detection p-value and assign a Present, Marginal or Absent call using the Wilcoxon signed rank test (Wilcoxon F., Biometrics 1:80-83 (1945); Affymetrix, Inc., New Statistical Algorithms for Monitoring Gene Expression on GeneChip Probe Arrays, Technical Notes 1, Part No. 701097 Rev. 1 (2001)). Only genes that were “Present” in at least 2 out of 3 arrays per experimental group were considered for further analysis. A signal algorithm calculated the relative level of expression of each transcript using the One-Step Tukey's Biweight Estimate (Affymetrix, Inc., New Statistical Algorithms for Monitoring Gene Expression on GeneChip Probe Arrays, Technical Notes 1, Part No. 701097 Rev. 1 (2001)). This procedure generates a robust weighted mean that is relatively insensitive to outliers, even when they are extreme. Genes with a signal intensity lower than the mean array signal intensity in 2 or more of the 3 arrays in either experimental group were eliminated from the analysis. All arrays were scaled to a target intensity of 2500. To identify differentially expressed genes, each of the 3 control samples was compared with each of the 3 STZ-treated samples, resulting in 9 pairwise comparisons. […] Difference values (PM-MM) between the control and STZ-treated arrays were used to generate a one-sided p-value for each set of probes. Default boundaries between significant and not significant p-values were used (Affymetrix, Inc., New Statistical Algorithms for Monitoring Gene Expression on GeneChip Probe Arrays, Technical Notes 1, Part No. 701097 Rev. 1 (2001)). […]

CN(N=O)C(=O)N[C@H]1C(O)O[C@H](CO)[C@@H](O)[C@@H]1O (mixture of isomers) [STZ, streptozotocin]
FC Destrin (Dsn) mRNA (GenBank W08453, liver, STZ vs control mice): 1.9 fold
FC Hepatocyte growth factor activator HGFA (Hgfac) mRNA (GenBank W12681, liver, STZ vs control mice): −2.8 fold
FC mb19d12.rl Soares mouse cDNA clone IMAGE:329879, similar to ACTIN, AORTIC SMOOTH MUSCLE (GenBank W12899, liver, STZ vs control mice): −2.9 fold
FC Hepcidin antimicrobial peptide (Hamp) mRNA (GenBank W12913, liver, STZ vs control mice): −2.2 fold
FC RIKEN cDNA 1110004C05 gene (GenBank W12941, liver, STZ vs control mice): 2.7 fold
FC Golgi reassembly stacking protein 2 (Grs2-pending) mRNA (GenBank W13835, liver, STZ vs control mice): 3.5 fold
FC DEAD/H (Asp-Glu-Ala-Asp/His) box polypeptide 1 mRNA (GenBank W13878, liver, STZ vs control mice): 1.9 fold
FC Angiotensinogen (Agt) mRNA (GenBank W17473, liver, STZ vs control mice): −2.4 fold
FC Tubulin cofactor a (Tbca) mRNA (GenBank W18904, liver, STZ vs control mice): 1.8 fold
FC RIKEN cDNA 1110061M03 gene (GenBank W21013, liver, STZ vs control mice): −2.6 fold
FC RIKEN cDNA 2410038A03 gene (GenBank W30137, liver, STZ vs control mice): 1.9 fold
FC Coagulation factor XII (Hageman factor) (F12) mRNA (GenBank W34349, liver, STZ vs control mice): 2.0 fold
FC Succinate dehydrogenase complex, subunit A, flavoprotein (Fp) (Sdha) mRNA (GenBank W53390, liver, STZ vs control mice): 2.0 fold
FC RIKEN cDNA 1810030E05 gene (GenBank W64827, liver, STZ vs control mice): 2.4 fold
FC mf48c06.rl Soares mouse embryo cDNA clone IMAGE:408298 (GenBank W85397, liver, STZ vs control mice): 2.0 fold
FC Cytochrome c oxidase, subunit VIIa 3 (Cox7a3) mRNA (GenBank W91222, liver, STZ vs control mice): 2.4 fold
FC CD 81 antigen (Cd81) mRNA (GenBank W98255, liver, STZ vs control mice): −2.9 fold
expression of Cytochrome c oxidase (liver of SID mice): increased
expression of Glutathione S-transferase μ2 (liver of SID mice): increased
expression of Glutathione S-transferase π2 (liver of SID mice): increased
expression of NADH dehydrogenase 1 (liver of SID mice): increased
expression of RAB 1 (liver of SID mice): increases
expression of a proteasome subunit (liver of SID mice): Increased
expression of alcohol dehydrogenase 1 (liver of SID mice): decreases
expression of arginase 1 (liver of SID mice): increased
expression of argininosuccinate synthetase 1 (liver of SID mice): increased
expression of complement component 4 (liver of SID mice): decreases
expression of corticosteroid binding globulin (liver of SID mice): Decreased
expression of cytochrome P450, 1a2 gene (liver of SID mice): decreases
expression of cytochrome P450, 2b13 gene (liver of SID mice): decreases
expression of cytochrome P450, 2c29 gene (liver of SID mice): decreases
expression of hepatic histidine ammonia lyase (liver of SID mice): Increased
expression of hepatic mRNA for insulin-like growth factor binding protein 2 (liver of SID mice): increases
expression of inter-alpha trypsin inhibitor, heavy chain 3 (liver of SID mice): increases
expression of lactate dehydrogenase 1 (liver of SID mice): increases
expression of sorbitol dehydrogenase 1 (liver of SID mice): decreases
expression of the flavin-containing monooxygenase 5 gene (liver of SID mice): increases
expression of the gene for apolipoprotein H (liver of SID mice): increases
expression of thioether S-methyltransferase (liver of SID mice): decreases
expression of two cytochrome P450, 3a subfamily members (liver of SID mice): increases
mRNA for heat shock 70 kD protein 5 (liver of SID mice): induced
mRNA for hypoxia inducible factor 1 (liver of SID mice): induced
mRNA for prolyl 4-hydroxylase, beta polypeptide (liver of SID mice): induced
number of known genes with a change in expression (liver, control vs STZ-treated mice, more than 11,000 genes and ESTs assessed, 1.8-fold or greater): 47
